Source: patent publication US9211311B2, “Methods for the treatment of neurodegenerative disorders” (priority 2010, dated 2015)

System: male patients exhibiting PD-induced symptoms
Test: Motor portion of the Unified Parkinson's Disease Rating Scale (UPDRS) before and after intranasal oxytocin
Assay type: in vivo, human
Settings: 40 IU intranasal oxytocin; for UPDRS total score after oxytocin therapy: off medications, reassessed 45 minutes to one hour after dosing, items rated 0-4, lower = less severe
Description: The participants were in their “off” period, wherein they were taken off their current medications prior to oxytocin therapy. During the experiment, each participant was given 40 IU ([…]) of intranasal oxytocin. The synthetic form of oxytocin was administered by way of an inhaler, such as those used in nasal spray decongestants. Five pumps of the inhaler were dispensed into the left nostril of the participants; the participants were asked to inhale deeply through the nose. Five more pumps were dispensed into the right nostril of the participants and again the participants were asked to inhale deeply. This process was repeated so that, in total, the participants received forty pumps of the inhaler, twenty per nostril.
Immediately following oxytocin infusion, the participants were given a battery of physical and cognitive tests, lasting about fifteen to twenty minutes. These tests included the Motor portion of the Unified Parkinson's Disease Rating Scale (UPDRS) as well as a cognitive test used to establish the mental and emotional status of the participants. For each test, the participants were rated on a scale of zero to four, with four being the symptoms at its most severe state.
After administration of oxytocin, the participants were asked to wait for 45 minutes to one hour, wherein they passed the time by reading, conversing or simply relaxing. Subsequently, the motor skills of the participants were assessed again using the UPDRS. The administration of the UPDRS the first time was to quantifiably evaluate the patient's symptoms uninfluenced by oxytocin infusion, whereas the second administration of the UPDRS test served to quantifiably assess the motor condition of the patient under the influence of oxytocin.
The participants remained under direct supervision throughout the experiment to ensure their comfort and well-being. Once the experimental procedure was completed, the participants were able to leave the clinic and were asked to continue taking their normal medications. The participants were not in any way restricted in their activities for the rest of the day.

Question: How did the “UPDRS total score after oxytocin therapy” value (participant 1, initial total score 24) turn out when `CC[C@H](C)[C@@H]1NC(=O)[C@H](Cc2ccc(O)cc2)NC(=O)[C@@H](N)CSSC[C@@H](C(=O)N2CCC[C@H]2C(=O)N[C@@H](CC(C)C)C(=O)NCC(N)=O)NC(=O)[C@H](CC(N)=O)NC(=O)[C@H](CCC(N)=O)NC1=O` [oxytocin] was run?
Answer: Its value is 17.

Question: What about the “decrease in UPDRS total score after oxytocin therapy” value (“decrease in UPDRS total score” for short) (participant 1, versus initial total score 24) of the same molecule?
Answer: The value was 30%.

Question: And the “UPDRS total score after oxytocin therapy” value (participant 2, initial total score 37.5)?
Answer: The value was 34.5.

Question: What about the “decrease in UPDRS total score” value (participant 2, versus initial total score 37.5) of the same molecule?
Answer: The value was 8%.

Question: And the “UPDRS total score after oxytocin therapy” value (participant 3, initial total score 17.5)?
Answer: The value was 9.5.

Question: And the “decrease in UPDRS total score” value (participant 3, versus initial total score 17.5)?
Answer: Its value is 50%.

Question: What about the “lasting effects due to the administration of oxytocin” value (three male PD patients, observed under supervision throughout the experiment) of the same molecule?
Answer: Its value is “not any lasting effects apparent”.
